# In US10253041B2, “7-phenylethylamino-4H-pyrimido[4,5-d][1,3]oxazin-2-one compounds and their use as mutant IDH1 inhibitors” (Eli Lilly and Company, priority 2015, dated 2019):
# Numbering of substitutions follows the chain as printed.
# How the values were obtained:
# [1] = target: T1, IDH2/R172K (Homo sapiens, UniProt P48735, R172K); assay: Biochemical assay for IDH2 R172K mutant enzyme (2HG by RapidFire MS); settings: mean ± standard deviation of the mean; 90 minutes reaction
# T1 construct: His-tag (N); made in house; host or cells: E. coli
# T1 sequence (P48735 40-452 R172K): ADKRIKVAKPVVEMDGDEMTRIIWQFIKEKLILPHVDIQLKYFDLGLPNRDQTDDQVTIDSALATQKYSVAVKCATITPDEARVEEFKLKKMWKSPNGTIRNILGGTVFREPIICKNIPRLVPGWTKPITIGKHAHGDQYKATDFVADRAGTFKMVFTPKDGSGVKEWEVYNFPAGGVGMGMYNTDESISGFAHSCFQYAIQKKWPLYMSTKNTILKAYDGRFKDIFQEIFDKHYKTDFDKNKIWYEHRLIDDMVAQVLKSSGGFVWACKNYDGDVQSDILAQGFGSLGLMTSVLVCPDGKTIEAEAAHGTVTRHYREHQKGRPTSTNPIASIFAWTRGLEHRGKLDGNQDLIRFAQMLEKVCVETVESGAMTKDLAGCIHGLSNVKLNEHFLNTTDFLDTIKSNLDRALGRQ
# Description: (§1) IDH1-R132H, IDH1-R132C, IDH2-R172K and IDH2-R140Q mutant enzymes catalyze the conversion of αKG to 2HG. 2HG is analyzed using in-line solid phase extraction and mass spectrometry. This analysis is carried out in a RapidFire® instrument coupled to a 6460 triple quadrupole mass spectrometer (G6460A Agilent).
# (§2) IDH1 mutant (R132H and R132C) and IDH2 mutant (R140Q and R172K) proteins containing N-terminal His-tag are expressed in E. coli and purified using nickel affinity chromatography. The enzyme assays are carried out in V-bottom 96 well polypropylene plates containing 100 mM Tris-HCl buffer, 1 mM DTT, 0.005% TRITON™ X-100, 120 mM NaCl. For IDH1 R132H, α-ketoglutarate, NADPH and MnCl2 are included at final concentrations of 300 μM, 2.5 μM and 300 μM respectively. For IDH1 R132C, α-ketoglutarate, NADPH and MnCl2 are included at final concentrations of 100 μM, 10 μM and 100 μM respectively. For IDH2 R172K, α-ketoglutarate, NADPH and MnCl2 are included at final concentrations of 150 μM, 10 μM and 150 μM respectively. For IDH2 R140Q, α-ketoglutarate, NADPH and MnCl2 are included at final concentrations of 3000 μM, 10 μM and 100 μM respectively. Final pH=7.0. Test compound dissolved in DMSO stock is diluted in the reaction mix at a final DMSO concentration of 4%. Compounds are tested in dose-response format. The assay is started by addition of enzyme. Enzymes are used at the following final concentrations: IDH1 R132H, 2 nM; IDH1 R132C, 0.5 nM; IDH2 R172K, 1.2 nM; IDH2 R140Q, 1.2 nM. After 90 minutes the reaction is quenched by adding ACN (50:50) containing 3-hydroxy-1,5-pentanedioic-2,2,3,4,4-d5 acid (5d5-3HG) as an internal standard for mass spectrometry analysis and quantitation of reaction product. 2-Hydroxyglutarate (2HG) in quenched samples is separated using strong anionic exchange column chromatography (Phenomenex Strata-X-A SecurityGuard) and analyzed by mass spectrometry in a 6460 triple quadrupole mass spectrometer (G6460A Agilent). The 2HG signal detected is transformed into an analyte concentration using a calibration curve generated using known 2HG concentrations. […] IC50 values are obtained from the individual % inhibition values at different compound concentrations using a 4-parameter equation. These calculations are carried out using Activity Base (IDBS) or Screener (Genedata) data analysis programs.
# [2] = target: T2, IDH1/R132C (Homo sapiens, UniProt O75874, R132C); assay: Biochemical assay for IDH1 R132C mutant enzyme (2HG by RapidFire MS); settings: mean ± standard deviation of the mean; 90 minutes reaction
# T2 construct: His-tag (N); made in house; host or cells: E. coli
# Description: as §1, §2
# [3] = target: T3, IDH2 Wild-Type (Homo sapiens, UniProt P48735); assay: Biochemical assay for wild-type IDH2 enzyme (αKG by LC-MS); settings: mean ± standard deviation of the mean
# T3 construct: His-tag (N); made in house; host or cells: E. coli
# T3 sequence (P48735 40-452): T1 sequence (P48735 40-452 R172K) with K133R
# Description: IDH1 and IDH2 enzymes catalyze the conversion of isocitrate to αKG. Wild-type IDH1 (National Center for Biotechnology Information, Accession: NP_001269316.1) and IDH2 (National Center for Biotechnology Information, Accession: EAX02082.1) proteins containing N-terminal His-tag are expressed in E. coli and purified using nickel affinity chromatography. The enzyme assays are carried out in V-bottom 96 well polypropylene plates containing 100 mM Tris-HCl buffer at pH 7.5, 1 mM DTT, 0.005% TRITON™ X-100, 120 mM NaCl. For the IDH1 wild-type assay isocitrate, NADP^+ and MnCl2 are included at the concentrations of 85 μM, 50 μuM and 20 μM respectively. For the IDH2 wild-type assay isocitrate, NADP^+ and MnCl2 are included at the concentrations of 30 μM, 50 μM and 10 μM respectively. Inhibitors dissolved in a DMSO stock solution are diluted in the reaction mixture at a final DMSO concentration of 4%. The enzyme assay is terminated (quenched) by adding ACN (50:50) containing d6-2-ketopentanedioic acid (d6-αKG) as an internal standard for mass spectrometry analysis. Ten microliters of reaction mixture is combined with 100 μL of water, 50 μL of 1 M O-benzylhydroxylamine in pyridine buffer (8.6% pyridine, pH 5), and 50 μL of 1 M N-(3-dimethylaminopropyl)-N-ethylcarbodiimide hydrochloride (EDC) in pyridine buffer. Following derivatization at room temperature for one hour, samples are extracted with 600 μL of EtOAc. Four hundred […] of the upper layer is removed, dried under heated nitrogen and reconstituted with 100 μL of MeOH/water (1:1). Ten μL of derivatized sample is injected onto an LC-MS system consisting of a Shimadzu Prominence 20A HPLC system and a The Thermo Quantum Ultra™ triple quadrupole mass spectrometer. Analytes are separated on a Waters XBridge™ C18 column (2.1×50 mm, […]) with a flow rate of 0.6 mL/minute. Mobile phase A is 0.1% formic acid in water and mobile phase B is MeOH. The αKG signal detected is transformed into analyte concentration using a calibration curve generated using known αKG concentrations. […] IC50 values are obtained from the individual % inhibition values at different compound concentrations using a 4-parameter equation. These calculations are carried out using Activity Base (IDBS) or Screener (Genedata) data analysis programs.
# T2 sequence (O75874 whole entry R132C): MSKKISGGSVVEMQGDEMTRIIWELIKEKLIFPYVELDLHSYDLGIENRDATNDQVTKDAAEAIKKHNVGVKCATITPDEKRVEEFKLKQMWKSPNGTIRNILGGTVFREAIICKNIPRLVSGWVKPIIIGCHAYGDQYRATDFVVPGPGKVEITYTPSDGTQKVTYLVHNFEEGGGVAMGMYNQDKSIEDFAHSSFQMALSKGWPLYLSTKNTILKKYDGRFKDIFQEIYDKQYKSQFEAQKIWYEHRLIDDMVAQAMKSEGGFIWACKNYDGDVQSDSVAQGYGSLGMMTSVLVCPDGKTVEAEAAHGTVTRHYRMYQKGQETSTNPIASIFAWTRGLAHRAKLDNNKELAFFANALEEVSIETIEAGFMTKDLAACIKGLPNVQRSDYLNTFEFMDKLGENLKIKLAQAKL
SMILES,IC50 [1],IC50 [2],IC50 [3]
"C=CC(=O)N1CCN(Cc2ccc([C@H](C)Nc3ncc4c(n3)N(C(C)C)C(=O)OC4)cc2)CC1 [Example 1, 1-Isopropyl-7-[[(1S)-1-[4-[(4-prop-2-enoylpiperazin-1-yl)methyl]phenyl]ethyl]amino]-4H-pyrimido[4,5-d][1,3]oxazin-2-one]",1.67 µM,0.0266 ± 0.0103 µM,10.7 ± 1.65 µM
"C=CC(=O)N1CCN(Cc2ccc([C@H](C)Nc3ncc4c(n3)N(CC)C(=O)OC4)cc2)CC1 [Example 2, 1-Ethyl-7-[[(1S)-1-[4-[(4-prop-2-enoylpiperazin-1-yl)methyl]phenyl]ethyl]amino]-4H-pyrimido[4,5-d][1,3]oxazin-2-one]",5.26 µM,0.102 ± 0.043 µM,14.3 ± 3.11 µM
"C=CC(=O)N1CCN(Cc2ccc([C@H](C)Nc3ncc4c(n3)N(CC(C)C)C(=O)OC4)cc2)CC1 [Example 3, 1-Isobutyl-7-[[(1S)-1-[4-[(4-prop-2-enoylpiperazin-1-yl)methyl]phenyl]ethyl]amino]-4H-pyrimido[4,5-d][1,3]oxazin-2-one]",5.35 µM,0.0295 ± 0.0082 µM,25.3 ± 21.3 µM
"C=CC(=O)N1CC(OCc2ccc([C@H](C)Nc3ncc4c(n3)N(CC)C(=O)OC4)cc2)C1 [Example 4, 1-Ethyl-7-[[(1S)-1-[4-[(1-prop-2-enoylazetidin-3-yl)oxymethyl]phenyl]ethyl]amino]-4H-pyrimido[4,5-d][1,3]oxazin-2-one]",1.46 µM,0.133 ± 0.032 µM,0.83 ± 1.49 µM
"C=CC(=O)N1CC2(CN(Cc3ccc([C@H](C)Nc4ncc5c(n4)N(CC(C)C)C(=O)OC5)cc3)C2)C1 [Example 5, 1-Isobutyl-7-[[(1S)-1-[4-[(2-prop-2-enoyl-2,6-diazaspiro[3.3]heptan-6-yl)methyl]phenyl]ethyl]amino]-4H-pyrimido[4,5-d][1,3]oxazin-2-one]",13.6 µM,0.0523 ± 0.0225 µM,7.46 ± 7.52 µM
"C=CC(=O)N1CCN(c2ccc([C@H](C)Nc3ncc4c(n3)N(C(C)C)C(=O)OC4)cc2)CC1 [Example 6, 1-Isopropyl-7-[[(1S)-1-[4-(4-prop-2-enoylpiperazin-1-yl)phenyl]ethyl]amino]-4H-pyrimido[4,5-d][1,3]oxazin-2-one]",14.1 µM,0.162 ± 0.042 µM,25.4 ± 6.32 µM
"C=CC(=O)N1CC(CCc2ccc([C@H](C)Nc3ncc4c(n3)N(CC)C(=O)OC4)cc2)C1 [Example 7, 1-Ethyl-7-[[(1S)-1-[4-[2-(1-prop-2-enoylazetidin-3-yl)ethyl]phenyl]ethyl]amino]-4H-pyrimido[4,5-d][1,3]oxazin-2-one]",0.482 µM,0.0448 ± 0.0219 µM,8.69 ± 10.2 µM
"C=CC(=O)N1CCC2(CC1)CN(Cc1ccc([C@H](C)Nc3ncc4c(n3)N(C(C)C)C(=O)OC4)cc1)C2 [Example 8, 1-Isopropyl-7-[[(1S)-1-[4-[(7-prop-2-enoyl-2,7-diazaspiro[3.5]nonan-2-yl)methyl]phenyl]ethyl]amino]-4H-pyrimido[4,5-d][1,3]oxazin-2-one]",51.7 µM,0.209 ± 0.075 µM,69.4 ± 24.9 µM
"C=CC(=O)N1CC(COc2ccc([C@H](C)Nc3ncc4c(n3)N(C(C)C)C(=O)OC4)cc2)C1 [Example 9, 1-Isopropyl-7-[[(1S)-1-[4-[(1-prop-2-enoylazetidin-3-yl)methoxy]-phenyl]ethyl]amino]-4H-pyrimido[4,5-d][1,3]oxazin-2-one]",2.09 µM,0.0629 ± 0.0188 µM,21.2 ± 32.2 µM
"C=CC(=O)N1CC(N(C)Cc2ccc([C@H](C)Nc3ncc4c(n3)N(CC)C(=O)OC4)cc2)C1 [Example 10, 1-Ethyl-7-[[(1S)-1-[4-[[methyl-(1-prop-2-enoylazetidin-3-yl)amino]methyl]-phenyl]ethyl]amino]-4H-pyrimido[4,5-d][1,3]oxazin-2-one]",6.61 µM,0.309 ± 0.107 µM,27.4 ± 18.7 µM
"C=CC(=O)N1CCN(Cc2ccc([C@H](C)Nc3ncc4c(n3)N([C@H](C)CO)C(=O)OC4)cc2)CC1 [Example 11, 1-[(1R)-2-Hydroxy-1-methyl-ethyl]-7-[[(1S)-1-[4-[(4-prop-2-enoylpiperazin-1-yl)methyl]phenyl]ethyl]amino]-4H-pyrimido[4,5-d][1,3]oxazin-2-one]",7.84 µM,0.119 ± 0.0541 µM,12.5 ± 21.2 µM
"C=CC(=O)N1CCC(N(C)Cc2ccc([C@H](C)Nc3ncc4c(n3)N(CC)C(=O)OC4)cc2)CC1 [Example 12, 1-Ethyl-7-[[(1S)-1-[4-[[methyl-(1-prop-2-enoyl-4-piperidyl)amino]-methyl]phenyl]ethyl]amino]-4H-pyrimido[4,5-d][1,3]oxazin-2-one]",25.3 µM,0.457 ± 0.229 µM,6.1 ± 13.3 µM
"C=CC(=O)N1CC(OCc2ccc([C@H](C)Nc3ncc4c(n3)N(CC(C)C)C(=O)OC4)cc2)C1 [Example 13, 1-Isobutyl-7-[[(1S)-1-[4-[(1-prop-2-enoylazetidin-3-yl)oxymethyl]phenyl]ethyl]amino]-4H-pyrimido[4,5-d][1,3]oxazin-2-one]",5.34 µM,0.0924 ± 0.0154 µM,4.62 ± 6.65 µM
"C=CC(=O)N1CC2(CN(Cc3ccc([C@H](C)Nc4ncc5c(n4)N(CC)C(=O)OC5)cc3)C2)C1 [Example 14, 1-Ethyl-7-[[(1S)-1-[4-[(2-prop-2-enoyl-2,6-diazaspiro[3.3]heptan-6-yl)methyl]phenyl]ethyl]amino]-4H-pyrimido[4,5-d][1,3]oxazin-2-one]",13 µM,0.0825 ± 0.0583 µM,7 ± 13.3 µM
